What was measured:
C6 glioma tumors = C6 glioma tumors subcutaneously implanted in mice, oral administration; assay type: in vivo; settings: 200 mg/kg/day, day 18 post-implantation, subcutaneous C6 tumors in BALB/c nu/nu mice
Experimental: The following protocol can be used to perform xenograft experiments:
Female athymic mice (BALB/c, nu/nu) are obtained from Simonsen Laboratories (Gilroy, Calif.). All animals are maintained under clean-room conditions in Micro-isolator cages with Alpha-dri bedding. They receive sterile rodent chow and water ad libitum.
Cell lines are grown in appropriate medium (for example, MEM, DMEM, Ham's F10, or Ham's F12 plus 5%-10% fetal bovine serum (FBS) and 2 mM glutamine (GLN)). All cell culture media, glutamine, and fetal bovine serum are purchased from Gibco Life Technologies (Grand Island, N.Y.) unless otherwise specified. All cells are grown in a humid atmosphere of 90-95% air and 5-10% CO2 at 37° C. All cell lines are routinely subcultured twice a week and are negative for mycoplasma as determined by the Mycotect method (Gibco).
Cells are harvested at or near confluency with 0.05% Trypsin-EDTA and pelleted at 450 x g for 10 min. […] Tumor growth is measured over 3 to 6 weeks using venier calipers. Tumor volumes are calculated as a product of length×width×height unless otherwise indicated. P values are calculated using the Students t-test. […]
The compounds also maintain excellent activity when tested in vivo. […] Tumor growth was measured using vernier calipers and tumor volumes were calculated as the product of length×width×height. […]

[1] = Potency in vitro (data not shown)
PDGFR = target: T1, PDGFR (Homo sapiens, UniProt P09619); test: Inhibition constant (Ki) against PDGFR; assay type: biochemical; settings: data not shown
T1 construct: expressed in transfected cells; host or cells: NIH 3T3 cells expressing PDGFR-β (lysate, Screening Lab, SUGEN)
T1 sequence (P09619 33-1106): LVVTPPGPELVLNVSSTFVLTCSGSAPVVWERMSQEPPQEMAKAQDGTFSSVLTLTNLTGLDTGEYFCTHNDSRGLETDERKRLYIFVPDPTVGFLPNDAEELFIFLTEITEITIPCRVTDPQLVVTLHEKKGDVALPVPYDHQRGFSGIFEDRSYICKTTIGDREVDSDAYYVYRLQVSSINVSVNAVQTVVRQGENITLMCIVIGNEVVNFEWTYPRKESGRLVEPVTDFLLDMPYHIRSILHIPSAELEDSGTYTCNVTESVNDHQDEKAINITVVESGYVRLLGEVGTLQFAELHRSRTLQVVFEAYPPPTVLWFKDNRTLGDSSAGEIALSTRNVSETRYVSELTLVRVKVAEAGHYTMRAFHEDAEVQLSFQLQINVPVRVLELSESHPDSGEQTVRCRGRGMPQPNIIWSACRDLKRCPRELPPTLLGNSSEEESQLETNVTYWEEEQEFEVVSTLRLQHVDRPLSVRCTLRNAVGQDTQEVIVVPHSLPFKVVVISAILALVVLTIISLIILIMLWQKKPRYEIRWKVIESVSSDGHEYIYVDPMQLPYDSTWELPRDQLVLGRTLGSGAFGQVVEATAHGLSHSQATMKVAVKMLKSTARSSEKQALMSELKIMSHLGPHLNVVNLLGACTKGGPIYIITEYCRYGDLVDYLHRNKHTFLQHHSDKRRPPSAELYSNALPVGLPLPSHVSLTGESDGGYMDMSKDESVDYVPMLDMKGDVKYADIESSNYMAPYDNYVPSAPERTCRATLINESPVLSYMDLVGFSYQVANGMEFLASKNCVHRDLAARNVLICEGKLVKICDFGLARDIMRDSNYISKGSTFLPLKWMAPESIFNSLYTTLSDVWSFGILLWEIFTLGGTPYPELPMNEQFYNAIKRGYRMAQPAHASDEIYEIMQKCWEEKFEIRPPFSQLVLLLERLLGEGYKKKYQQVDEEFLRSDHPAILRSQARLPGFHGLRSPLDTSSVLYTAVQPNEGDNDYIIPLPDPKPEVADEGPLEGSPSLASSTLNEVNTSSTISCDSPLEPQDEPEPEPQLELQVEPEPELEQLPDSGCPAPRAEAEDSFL

HUV-EC-C cells (VEGF) = test: HUV-EC-C assay, VEGF-stimulated 3H-thymidine incorporation (HUVEC-VEGF); assay type: cell-based; settings: Homo sapiens; Table 1
Experimental: (§1) The following protocol may also be used to measure a compound's activity against PDGF-R, FGF-R, VEGF, aFGF or Flk-1/KDR, all of which are naturally expressed by HUV-EC cells.
(§2) 1. […] After cells have detached from the flask, add an equal volume of assay medium and transfer to a 50 ml sterile centrifuge tube (Fisher Scientific, catalogue no. 05-539-6).
(§3) 2. Wash the cells with about 35 ml assay medium in the 50 ml sterile centrifuge tube by adding the assay medium, centrifuge for 10 minutes at approximately 200x g, aspirate the supernatant, and resuspend with 35 ml D-PBS. Repeat the wash two more times with D-PBS, resuspend the cells in about 1 ml assay medium/is cm^2 of tissue culture flask. Assay medium consists of F12K medium (Gibco BRL, catalogue no. 21127-014) and 0.5% heat-inactivated fetal bovine serum. Count the cells with a Coulter Counter® (Coulter Electronics, Inc.) and add assay medium to the cells to obtain a concentration of 0.8-1.0×10^5 cells/ml.
(§4) 3. Add cells to 96-well flat-bottom plates at 100 μl/well or 0.8-1.0×10^4 cells/well, incubate −24h at 37° C., 5% CO2.
(§5) 1. Make up two-fold test compound titrations in separate 96-well plates, generally 50 μM on down to 0 μM. Use the same assay medium as mentioned in day 0, step 2 above. Titrations are made by adding […] of test compound at 200 μM (4X the final well concentration) to the top well of a particular plate column. Since the stock test compound is usually 20 mM in DMSO, the 200 μM drug concentration contains 2% DMSO.
(§6) A diluent made up to 2% DMSO in assay medium (F12K+0.5% fetal bovine serum) is used as diluent for the test compound titrations in order to dilute the test compound but keep the DMSO concentration constant. Add this diluent to the remaining wells in the column at 60 μl/well. Take 60 μl from the 120 μl of 200 μM test compound dilution in the top well of the column and mix with the 60 μl in the second well of the column. Take 60 μl from this well and mix with the 60 μl in the third well of the column, and so on until two-fold titrations are completed. When the next-to-the-last well is mixed, take 60 μl of the 120 μl in this well and discard it. Leave the last well with 60 μl of DMSO/media diluent as a non-test compound-containing control. Make 9 columns of titrated test compound, enough for triplicate wells each for: (1) VEGF (obtained from Pepro Tech Inc., catalogue no. 100-200, (2) endothelial cell growth factor (ECGF) (also known as acidic fibroblast growth factor, or aFGF) (obtained from Boehringer Mannheim Biochemica, catalogue no. 1439 600), or, (3) human PDGF B/B (1276-956, Boehringer Mannheim, Germany) and assay media control. ECGF comes as a preparation with sodium heparin.
(§7) 2. Transfer 50 μl/well of the test compound dilutions to the 96-well assay plates containing the 0.8-1.0×10^4 cells/100 μl/well of the HUV-EC-C cells from day 0 and incubate […] at 37° C., 5% CO2.
(§8) 3. In triplicate, add 50 μl well of […] VEGF, 20 ng/ml ECGF, or media control to each test compound condition. As with the test compounds, the growth factor concentrations are 4X the desired final concentration. Use the assay media from day 0 step 2 to make the concentrations of growth factors. Incubate approximately 24 hours at 37° C., 5% CO2. Each well will have 50 μl test compound dilution, 50 μl growth factor or media, and 100 μl cells, which calculates to 200 μl/well total. Thus the 4X concentrations of test compound and growth factors become 1X once everything has been added to the wells.
(§9) 1. Add ^3H-thymidine (Amersham, catalogue no. TRK-686) at 1 μCi/well (10 μl/well of 100 μCi/ml solution made up in RPMI media +10% heat-inactivated fetal bovine serum) and incubate ˜24 h at 37° C., 5% CO2. RPMI is obtained from Gibco BRL, catalogue no. 11875-051.
(§10) 1. Freeze plates overnight at −20° C. […]

HUV-EC-C cells (aFGF) = test: HUV-EC-C assay, aFGF (ECGF)-stimulated 3H-thymidine incorporation (HUVEC-aFGF); assay type: cell-based; settings: Homo sapiens; Table 1
Experimental: as §1, §2, §3, §4, §5, §6, §7, §8, §9, §10

Compound: O=C(O)CCc1c(/C=C2\C(=O)Nc3ccc(Br)cc32)[nH]c2c1CCCC2 [Compound 65]
- inhibition of tumor growth (C6 glioma tumors): approximately 65%
- potency in vitro compared to compound 5 [1]: almost an order of magnitude greater potency in vitro

Compound: CC1C(CCC(=O)O)=CNC1/C=C1\C(=O)Nc2ccccc21 (stereo not drawn) [Compound 71]
- inhibition of tumor growth (C6 glioma tumors): 51%

Compound: Cc1[nH]c(/C=C2\C(=O)Nc3ccccc32)c(C)c1CCC(=O)O [Example 5, 3-[2,4-Dimethyl-5-(2-oxo-1,2-dihydroindol-3-ylidenemethyl)-1H-pyrrol-3-yl]-propionic acid]
- Ki (inhibition constant) against PDGFR, compared to compound 70 (PDGFR): significantly smaller

Compound: Cc1c(CCC(=O)O)c[nH]c1/C=C1\C(=O)Nc2cc(-c3ccccc3)ccc21 [Example 33, 3-[4-Methyl-5-(2-oxo-6-phenyl-1,2-dihydro-indol3-ylidenemethyl)-1H-pyrrol-3-yl]-propionic acid]
- IC50 (HUV-EC-C cells (VEGF)): 810 nM
- IC50 (HUV-EC-C cells (aFGF)): 1000 nM

— patent US7119090B2, “Pyrrole substituted 2-indolinone protein kinase inhibitors” (Sugen, Inc., priority 1998, dated 2006)
